Reference: patent US20090176759A1, “LEUKEMIC STEM CELL ABLATION” (ChemGenex Pharmaceuticals, Inc., priority 2007, published 2009)

Columns and labels:
[1] = system: leukemia stem cells (GFP+Lin− c-Kit+Sca-1+); assay: Bone marrow cells from CML mice cultured in vitro with HHT, FACS analysis of leukemia stem cells; format: cell-based
Method: (§1) FIG. 5A is a FACS analysis of bone marrow cells isolated from mice with BCR-ABL-WT-induced CML were cultured in vitro (5×10^6 cells/6 cm tissue culture plate) in the presence of different doses of HHT for 6 days (changing the stem cell medium containing placebo or HHT at day 3) followed by FACS analysis of leukemia stem cells (GFP+Lin− c-Kit+Sca-1+). FIG. 5B depicts bar graphs for the leukemic cells and leukemic stem cells. […] Bone marrow cells were isolated from the treated CML mice, and leukemia stem cells were analyzed by FACS. The numbers of cells represent total leukemia stem cells in average from femur and tibia of each treated CML mouse.
FIG. 5A is a FACS analysis of bone marrow cells isolated from mice with BCR-ABL-WT-induced CML that were cultured in vitro (5×10^6 cells/6 cm tissue culture plate) in the presence of different doses of HHT for 6 days (changing the stem cell medium containing placebo or HHT at day 3) followed by FACS analysis of leukemia stem cells (GFP+ Lin− c-Kit+Sca-1+). FIG. 5B depicts bar graphs for the leukemic cells and leukemic stem cells.

IM-resistant T315I+CML = assay: Multicenter open-label phase 2/3 study of subcutaneous omacetaxine, efficacy; format: in vivo, human
Description: As used herein, a cytological response to treatment with cephalotaxine and/or TKI is a response that occurs in the bone marrow rather than just in the peripheral blood. There are at least three cytological responses: (1) a cytogenetic response (CR); (2) a major cytogenetic response (MCR); and a complete cytogenetic response (CCR). Determination of such responses is based on the measurement of the number of peripheral blood and/or bone marrow cells having a marker that is associated with a particular leukemia. Such markers include cell surface antigens, aberrant proteins, and genetic modifications. A cytogenetic response occurs if the number or percentage of cells with such a marker decreases during treatment. A major cytogenetic response occurs if the number or percentage of such cells falls below 35%. A complete cytogenetic response occurs when no cells containing the marker are detected. For example, CML is characterized by the Ph+ chromosome. A cytogenetic response has occurred if the number of Ph+ chromosomes decreases at all during treatment. If the Ph+ percentage drops to 35% or less, it is considered a major cytogenetic response; 0% Ph+ is a complete cytogenetic response.
As used herein, a hematological response occurs when there is a change in the white blood cell count of a patient following treatment with cephalotaxine and/or TKI. The change in white blood cell count can be in the peripheral blood and the bone marrow although the change may be observed only in the peripheral blood. The response can be a partial reduction in white cell count or complete reduction to normal values (e.g. 10,000-12,000 cells […].)
This example summarizes human clinical trials using HHT to treat patients with IM-resistant T315I+CML.
(§2) A multicenter open-label phase 2/3 study evaluating safety and efficacy of omacetaxine administered subcutaneously (SC) in patients with IM-resistant T315I+CML in all phases of the disease is being conducted.
(§3) Induction phase—1.25 mg/m2 twice daily SC for 14 consecutive days every 28 days until complete hematologic response (CHR) or hematologic improvement has been achieved.
(§4) Maintenance therapy—1.25 mg/m2 twice daily SC for 7 days every 28 days for up to 24 months.
(§5) Doses were adjusted to maintain adequate WBC and platelet control by increasing or decreasing the number of days of administration of omacetaxine.

[2] = Phase 2/3 study of subcutaneous omacetaxine, safety and tolerability; format: in vivo, human
Method: as §2, §3, §4, §5
Includes all events considered related, probably related, possibly related, or with unknown relationship to omacetaxine treatment. Events listed in the table are included if occurrence was >5% of the total population (at least 1 of 23 patients).

[3] = system: leukemia stem cells of mice with BCR-ABL-WT-induced CML; assay: Leukemic cells and leukemia stem cells in bone marrow of treated CML mice, FACS; format: in vivo; details: HHT 0.5 mg/kg once every day, imatinib 100 mg/kg twice a day, by gavage, 4 days beginning at day 8 after transplantation
Method: as §1
Bone marrow cells were isolated from the treated CML mice, and leukemia stem cells were analyzed by FACS. The numbers of cells represent total leukemia stem cells in average from femur and tibia of each treated CML mouse.

[4] = in vitro, different doses of HHT for 6 days
[5] = Accelerated Phase, N = 5, median (range)
[6] = Chronic Phase, N = 20, median (range)

COC(=O)C[C@](O)(CCCC(C)(C)O)C(=O)O[C@@H]1C(OC)=C[C@]23CCCN2CCc2cc4c(cc2[C@H]13)OCO4 [HHT, Homoharringtonine]
proliferation of BCR-ABL-expressing leukemic stem cells [1]: inhibits the proliferation
number of leukemic cells [1, 4]: reduces
number of leukemic stem cells [1, 4]: reduces
Median Duration of Response, Cytogenetic Response Minimal (IM-resistant T315I+CML; Accelerated Phase, N = 5): 2.3 Months
Median Duration of Response, Hematologic Response HI (IM-resistant T315I+CML; Accelerated Phase, N = 5): 2.8 Months
Median Duration of Response, Hematologic Response CHR (IM-resistant T315I+CML; [5]): 9.6 (8.3-10.9+) Months
Median Duration of Response, Hematologic Response RCP (IM-resistant T315I+CML; [5]): 2.0 (2.0-2.0+) Months
Complete Hematologic Response (CHR) (IM-resistant T315I+CML; Accelerated Phase, N = 11): 2 (18) Number (%)
Cytogenetic Response, Minimal (IM-resistant T315I+CML; Accelerated Phase, N = 11): 1 (9) Number (%)
Cytogenetic Response, Overall (IM-resistant T315I+CML; Accelerated Phase, N = 11): 1 (9) Number (%)
Hematologic Improvement (HI) (IM-resistant T315I+CML; Accelerated Phase, N = 11): 1 (9) Number (%)
Hematologic Response, Overall (IM-resistant T315I+CML; Accelerated Phase, N = 11): 5 (45) Number (%)
Return to Chronic Phase (RCP) (IM-resistant T315I+CML; Accelerated Phase, N = 11): 2 (18) Number (%)
Median Duration of Response, Hematologic Response RCP (IM-resistant T315I+CML; Blast Phase, N = 1): 3.4 Months
Hematologic Response, Overall (IM-resistant T315I+CML; Blast Phase, N = 8): 1 (13) Number (%)
Return to Chronic Phase (RCP) (IM-resistant T315I+CML; Blast Phase, N = 8): 1 (13) Number (%)
Median Duration of Response, Cytogenetic Response Partial (IM-resistant T315I+CML; Chronic Phase, N = 20): 4.2 Months
Median Duration of Response, Cytogenetic Response Complete (IM-resistant T315I+CML; [6]): 4.8 (0.3-9.7+) Months
Median Duration of Response, Cytogenetic Response Minimal (IM-resistant T315I+CML; [6]): 4.0 (3.9-20.8+) Months
Median Duration of Response, Hematologic Response CHR (IM-resistant T315I+CML; [6]): 11.5 (3.5-25.4+) Months
Complete Hematologic Response (CHR) (IM-resistant T315I+CML; Chronic Phase, N = 25): 20 (80) Number (%)
Cytogenetic Response, Complete (IM-resistant T315I+CML; Chronic Phase, N = 25): 4 (16) Number (%)
Cytogenetic Response, Minimal (IM-resistant T315I+CML; Chronic Phase, N = 25): 2 (8) Number (%)
Cytogenetic Response, Overall (IM-resistant T315I+CML; Chronic Phase, N = 25): 7 (28) Number (%)
Cytogenetic Response, Partial (IM-resistant T315I+CML; Chronic Phase, N = 25): 1 (4) Number (%)
Hematologic Response, Overall (IM-resistant T315I+CML; Chronic Phase, N = 25): 20 (80) Number (%)
Molecular Response, Major (IM-resistant T315I+CML; Chronic Phase, N = 25): 2 (8) Number (%)
Cytogenetic Response, Major* (IM-resistant T315I+CML; Chronic Phase, N = 25, one complete and one partial cytogenetic response are unconfirmed): 5 (20) Number (%)
progression free survival (IM-resistant T315I+CML; accelerated phase (AP), after one year): 25%
progression free survival (IM-resistant T315I+CML; blast phase (BP), after 6 months): 44%
progression free survival (IM-resistant T315I+CML; chronic phase (CP), after 1 year): 80%
progression free survival (IM-resistant T315I+CML; chronic phase (CP), after 2 years): 70%
duration of complete hematologic and cytogenetic responses (IM-resistant T315I+CML; in vivo): up to one year
Treatment-Related Serious Adverse Events: Neutropenic Fever ([2]; Accelerated Phase): 1 (9) Number (percent)
Treatment-Related Serious Adverse Events: Thrombocytopenia ([2]; Accelerated Phase): 0 Number (percent)
Grade 3/4 Toxicities: Anemia ([2]; Accelerated Phase, N = 5): 2 (40) number (percent)
Grade 3/4 Toxicities: Diarrhea ([2]; Accelerated Phase, N = 5): 1 (20) number (percent)
Grade 3/4 Toxicities: Febrile neutropenia ([2]; Accelerated Phase, N = 5): 2 (40) number (percent)
Grade 3/4 Toxicities: Neutropenia ([2]; Accelerated Phase, N = 5): 2 (40) number (percent)
Grade 3/4 Toxicities: Pancytopenia ([2]; Accelerated Phase, N = 5): 2 (40) number (percent)
Grade 3/4 Toxicities: Thrombocytopenia ([2]; Accelerated Phase, N = 5): 3 (60) number (percent)
Treatment-Related Serious Adverse Events: Acute Coronary Syndrome* ([2]; Accelerated Phase, N = 6): 0 Number (percent)
Deaths on study ([2]; BP patients with progressive disease, none considered related to the study drug): 3 deaths
Grade 3/4 Toxicities: Anemia ([2]; Blast Phase, N = 6): 1 (17) number (percent)
Grade 3/4 Toxicities: Diarrhea ([2]; Blast Phase, N = 6): 1 (17) number (percent)
Grade 3/4 Toxicities: Febrile neutropenia ([2]; Blast Phase, N = 6): 2 (40) number (percent)
Grade 3/4 Toxicities: Neutropenia ([2]; Blast Phase, N = 6): 2 (33) number (percent)
Grade 3/4 Toxicities: Pancytopenia ([2]; Blast Phase, N = 6): 0 number (percent)
Grade 3/4 Toxicities: Thrombocytopenia ([2]; Blast Phase, N = 6): 1 (17) number (percent)
Treatment-Related Serious Adverse Events: Acute Coronary Syndrome* ([2]; Blast Phase, N = 6): 0 Number (percent)
Treatment-Related Serious Adverse Events: Neutropenic Fever ([2]; Blast Phase, N = 6): 1 (9) Number (percent)
Treatment-Related Serious Adverse Events: Thrombocytopenia ([2]; Blast Phase, N = 6): 0 Number (percent)
Grade 3/4 Toxicities: Anemia ([2]; Chronic Phase, N = 12): 7 (58) number (percent)
Grade 3/4 Toxicities: Diarrhea ([2]; Chronic Phase, N = 12): 2 (17) number (percent)
Grade 3/4 Toxicities: Febrile neutropenia ([2]; Chronic Phase, N = 12): 1 (9) number (percent)
Grade 3/4 Toxicities: Neutropenia ([2]; Chronic Phase, N = 12): 6 (50) number (percent)
Grade 3/4 Toxicities: Pancytopenia ([2]; Chronic Phase, N = 12): 1 (9) number (percent)
Grade 3/4 Toxicities: Thrombocytopenia ([2]; Chronic Phase, N = 12): 8 (67) number (percent)
Treatment-Related Serious Adverse Events: Neutropenic Fever ([2]; Chronic Phase, N = 12): 1 (9) Number (percent)
Treatment-Related Serious Adverse Events: Thrombocytopenia ([2]; Chronic Phase, N = 12): 1 (9) Number (percent)
Treatment-Related Serious Adverse Events: Acute Coronary Syndrome* ([2]; Chronic Phase, N = 12, considered secondary to omacetaxine induced anemia): 1 (9) Number (percent)
Grade 3/4 Toxicities: Anemia ([2]; Total, N = 23): 10 (43) number (percent)
Grade 3/4 Toxicities: Diarrhea ([2]; Total, N = 23): 4 (17) number (percent)
Grade 3/4 Toxicities: Febrile neutropenia ([2]; Total, N = 23): 5 (22) number (percent)
Grade 3/4 Toxicities: Neutropenia ([2]; Total, N = 23): 10 (43) number (percent)
Grade 3/4 Toxicities: Pancytopenia ([2]; Total, N = 23): 3 (13) number (percent)
Grade 3/4 Toxicities: Thrombocytopenia ([2]; Total, N = 23): 12 (52) number (percent)
Treatment-Related Serious Adverse Events: Acute Coronary Syndrome* ([2]; Total, N = 23): 1 (4) Number (percent)
Treatment-Related Serious Adverse Events: Neutropenic Fever ([2]; Total, N = 23): 3 (13) Number (percent)
Treatment-Related Serious Adverse Events: Thrombocytopenia ([2]; Total, N = 23): 1 (4) Number (percent)
Grade 1/2 injection site erythema, patients ([2]; number (%) of patients): 6 (23%)
Grade 1/2 injection site pain, patients ([2]; number (%) of patients): 3 (13%)
Dose delays ([2]; of induction cycles): 75%
Dose delays ([2]; of maintenance cycles): 80%
myelosuppression (most common side effect) ([2]; subcutaneously administered): usually transient and reversible, and rarely results in serious clinical complications
tolerability ([2]; subcutaneously administered): generally well tolerated
number of leukemic cells in bone marrow [3]: reduces
number of leukemic stem cells in bone marrow (femur and tibia) [3]: reduces
